Results on one molecule are retold here after patent US8206941B2, “Three part assay for kinase or phosphatase activity” (Hoffmann-La Roche Inc., priority 2005, dated 2012).

This test addresses T1, PDHK2 (recombinant pyruvate dehydrogenase kinase 2) (Homo sapiens, UniProt Q15119).
T1 construct: made in house
The test can be described thus: Fast-TR FRET kinase IMAP assay, ATP dependence of the kinase reaction. The test is classed as biochemical. Conditions: 1 μM Alexa-peptide in the kinase reaction; concentration in the kinase reaction (50 times less in readout); FRET readout 730 (30) nm; FIG. 9; read-out: EC50 of ATP dose response curve. From the text:
• Substrate peptide (YHGHSMSAPGVSTAC (SEQ ID NO: 1)) from Biosyntan labeled with Alexa Fluor 700 • Phosphorylated substrate peptide (YHGHS(H2PO4)MSAPGVSTAC (SEQ ID NO: 1)) from Biosyntan labeled with Alexa Fluor 700 and Ru(batho) 2bpy • Kinase enzyme: PDHK2 (recombinant pyruvate dehydrogenase kinase 2, expressed according to standard methods) • IMAP™ beads from Molecular Devices (IMAP™ Explorer Kit (IPP) Product # R8062) • Buffer: IMAP™ Binding Buffer 1:5 diluted with dest. H2O+0.05% BSA Instrumentation: • Zeiss plate::vision reader • Plate: Costar 384, UV-NBS • Excitation wavelength: 355 nm • Emission filter: 730 (30) nm, 615 (10) nm
1 μl of the PDHK2 enzyme was diluted in 11 μl kinase buffer (25 mM Hepes pH 7.4, 150 mM NaCl, 18.7 mM MgCl2, 0.4 mM NH4Ac, 0.025% Triton X-100, 1.87 mM DTT). […] For the readout the final substrate concentration was 20 nM (phosphorylated) Alexa-peptide and with the final ATP concentration of 2 μM the FRET signal should be easily detectable (FIG. 5). […]
Note that these were the concentrations in the kinase reaction, in the readout they were 50 times less. […] With higher ATP concentrations the signal decreased again due to free ATP in the readout mixture which bound to the IMAP™ beads and thus decreased the binding capacity of the IMAP™ beads. […]
For orientation: TR-FRET usually uses a lanthanide donor and a delayed reading to cut background.

Turning to `Nc1ncnc2c1ncn2[C@@H]1O[C@H](COP(=O)(O)OP(=O)(O)OP(=O)(O)O)[C@@H](O)[C@H]1O` [ATP], the half-maximal effective concentration (EC50) came to 3.6 µM.

Usually EC50 stands for the concentration needed to bring the measured effect to its halfway point.
